From US9066861B2 (priority 2009, dated 2015)

How the values were obtained:
Type in all cases: physicochemical
[1] = Assay (%) test of APIs in cream, stability study, HPLC method
Description: The stability of the product is confirmed by the stability studies performed for 3/6 months as per ICH guidelines.
APIs-stability experiments were carried out (see tables 3-20) using several products that are representative of the present invention. Tests were carried out to observe (or measure as appropriate) the physical appearance of the product, the pH value and assay of the APIs over a period of time. […] Betamethasone Valerate—0.12% (w/w) • ii. Fluticasone Propionate—0.05% (w/w) • iii. Mometasone Furoate—0.1% (w/w) • iv. Dexamethasone Acetate—0.1% (w/w) • v. Hydrocortisone Acetate—1.0% (w/w) • vi. Clobetasol Propionate—0.05% (w/w) • vii. Beclomethasone Dipropionate—0.025% (w/w) • viii. Betamethasone Dipropionate—0.05% (w/w) wherein all percentages are with respect to the final formulation.
The product used for the Stability Studies tests contained approximately 10% extra APIs (overages).

[2] = Stability analysis of raw API by titration method (BP); settings: after 3 Months
Source text: (§1) In both studies the * Initial denotes the results of the samples tested at the time of receipt of the API from the supplier.

[3] = Stability analysis of raw API by stability indicating HPLC method; settings: for Assay (%) HPLC / Percentage Drop (%) HPLC / loss in 3 Months: raw API; for Assay (%) HPLC / Percentage Drop (%) HPLC: after 3 Months
Source text: as §1

CC(=O)O[C@H]1C[C@@]2(C)[C@@H](C[C@@H](O)[C@H]3[C@@]4(C)CC[C@@H](O)[C@@H](C)[C@@H]4CC[C@@]32C)/C1=C(\CCC=C(C)C)C(=O)O [Fusidic acid]
Assay (%) ([1]; in cream Batch No. HAS-01, 25° C. 60% RH, 1st Month): 108.50%
Assay (%) ([1]; in cream Batch No. HAS-01, 25° C. 60% RH, 2nd Month): 108.44%
Assay (%) ([1]; in cream Batch No. HAS-01, 25° C. 60% RH, 3rd Month): 108.36%
Assay (%) ([1]; in cream Batch No. HAS-01, 30° C. 65% RH, 1st Month): 108.51%
Assay (%) ([1]; in cream Batch No. HAS-01, 30° C. 65% RH, 2nd Month): 108.42%
Assay (%) ([1]; in cream Batch No. HAS-01, 30° C. 65% RH, 3rd Month): 108.32%
Assay (%) ([1]; in cream Batch No. HAS-01, 40° C. 75% RH, 1st Month): 108.48%
Assay (%) ([1]; in cream Batch No. HAS-01, 40° C. 75% RH, 2nd Month): 108.34%
Assay (%) ([1]; in cream Batch No. HAS-01, 40° C. 75% RH, 3rd Month): 108.20%
Assay (%) ([1]; in cream Batch No. HAS-01, Freezthaw, 1st Month): 108.31%
Assay (%) ([1]; in cream Batch No. HAS-01, Initial): 108.52%
Assay (%) ([1]; in cream Batch No. HAS-01, Temperature cycling, 1st Month): 108.40%
Assay (%) ([1]; in cream Batch No. SBV-01, 25° C. 60% RH, 1st Month): 108.54%
Assay (%) ([1]; in cream Batch No. SBV-01, 25° C. 60% RH, 2nd Month): 108.42%
Assay (%) ([1]; in cream Batch No. SBV-01, 25° C. 60% RH, 3rd Month): 108.40%
Assay (%) ([1]; in cream Batch No. SBV-01, 30° C. 65% RH, 1st Month): 108.53%
Assay (%) ([1]; in cream Batch No. SBV-01, 30° C. 65% RH, 2nd Month): 108.41%
Assay (%) ([1]; in cream Batch No. SBV-01, 30° C. 65% RH, 3rd Month): 108.36%
Assay (%) ([1]; in cream Batch No. SBV-01, 40° C. 75% RH, 1st Month): 108.46%
Assay (%) ([1]; in cream Batch No. SBV-01, 40° C. 75% RH, 2nd Month): 108.16%
Assay (%) ([1]; in cream Batch No. SBV-01, 40° C. 75% RH, 3rd Month): 108.11%
Assay (%) ([1]; in cream Batch No. SBV-01, Freezthaw, 1st Month): 108.01%
Assay (%) ([1]; in cream Batch No. SBV-01, Initial): 108.57%
Assay (%) ([1]; in cream Batch No. SBV-01, Temperature cycling, 1st Month): 107.53%
Assay (%) ([1]; in cream Batch No. SFB-01, 25° C. 60% RH, 1st Month): 108.22%
Assay (%) ([1]; in cream Batch No. SFB-01, 25° C. 60% RH, 2nd Month): 108.18%
Assay (%) ([1]; in cream Batch No. SFB-01, 25° C. 60% RH, 3rd Month): 108.15%
Assay (%) ([1]; in cream Batch No. SFB-01, 30° C. 65% RH, 1st Month): 108.25%
Assay (%) ([1]; in cream Batch No. SFB-01, 30° C. 65% RH, 2nd Month): 108.22%
Assay (%) ([1]; in cream Batch No. SFB-01, 30° C. 65% RH, 3rd Month): 108.18%
Assay (%) ([1]; in cream Batch No. SFB-01, 40° C. 75% RH, 1st Month): 108.25%
Assay (%) ([1]; in cream Batch No. SFB-01, 40° C. 75% RH, 2nd Month): 108.20%
Assay (%) ([1]; in cream Batch No. SFB-01, 40° C. 75% RH, 3rd Month): 108.12%
Assay (%) ([1]; in cream Batch No. SFB-01, Freezthaw, 1st Month): 108.11%
Assay (%) ([1]; in cream Batch No. SFB-01, Initial): 108.28%
Assay (%) ([1]; in cream Batch No. SFB-01, Temperature cycling, 1st Month): 108.23%
Assay (%) ([1]; in cream Batch No. SFC-01, 25° C. 60% RH, 1st Month): 108.64%
Assay (%) ([1]; in cream Batch No. SFC-01, 25° C. 60% RH, 2nd Month): 108.52%
Assay (%) ([1]; in cream Batch No. SFC-01, 25° C. 60% RH, 3rd Month): 108.48%
Assay (%) ([1]; in cream Batch No. SFC-01, 25° C. 60% RH, 6th Month): 108.38%
Assay (%) ([1]; in cream Batch No. SFC-01, 30° C. 65% RH, 1st Month): 108.53%
Assay (%) ([1]; in cream Batch No. SFC-01, 30° C. 65% RH, 2nd Month): 108.31%
Assay (%) ([1]; in cream Batch No. SFC-01, 30° C. 65% RH, 3rd Month): 108.26%
Assay (%) ([1]; in cream Batch No. SFC-01, 30° C. 65% RH, 6th Month): 108.22%
Assay (%) ([1]; in cream Batch No. SFC-01, 40° C. 75% RH, 1st Month): 108.56%
Assay (%) ([1]; in cream Batch No. SFC-01, 40° C. 75% RH, 2nd Month): 108.36%
Assay (%) ([1]; in cream Batch No. SFC-01, 40° C. 75% RH, 3rd Month): 108.21%
Assay (%) ([1]; in cream Batch No. SFC-01, 40° C. 75% RH, 6th Month): 108.18%
Assay (%) ([1]; in cream Batch No. SFC-01, Freezthaw, 1st Month): 108.21%
Assay (%) ([1]; in cream Batch No. SFC-01, Initial): 108.68%
Assay (%) ([1]; in cream Batch No. SFC-01, Temperature cycling, 1st Month): 108.10%
Assay (%) ([1]; in cream Batch No. SFD-01, 25° C. 60% RH, 1st Month): 108.60%
Assay (%) ([1]; in cream Batch No. SFD-01, 25° C. 60% RH, 2nd Month): 108.54%
Assay (%) ([1]; in cream Batch No. SFD-01, 25° C. 60% RH, 3rd Month): 108.46%
Assay (%) ([1]; in cream Batch No. SFD-01, 30° C. 65% RH, 1st Month): 108.63%
Assay (%) ([1]; in cream Batch No. SFD-01, 30° C. 65% RH, 2nd Month): 108.52%
Assay (%) ([1]; in cream Batch No. SFD-01, 30° C. 65% RH, 3rd Month): 108.32%
Assay (%) ([1]; in cream Batch No. SFD-01, 40° C. 75% RH, 1st Month): 108.58%
Assay (%) ([1]; in cream Batch No. SFD-01, 40° C. 75% RH, 2nd Month): 108.44%
Assay (%) ([1]; in cream Batch No. SFD-01, 40° C. 75% RH, 3rd Month): 108.30%
Assay (%) ([1]; in cream Batch No. SFD-01, Freezthaw, 1st Month): 108.41%
Assay (%) ([1]; in cream Batch No. SFD-01, Initial): 108.62%
Assay (%) ([1]; in cream Batch No. SFD-01, Temperature cycling, 1st Month): 108.52%
Assay (%) ([1]; in cream Batch No. SFM-01, 25° C. 60% RH, 1st Month): 108.24%
Assay (%) ([1]; in cream Batch No. SFM-01, 25° C. 60% RH, 2nd Month): 108.22%
Assay (%) ([1]; in cream Batch No. SFM-01, 25° C. 60% RH, 3rd Month): 108.20%
Assay (%) ([1]; in cream Batch No. SFM-01, 25° C. 60% RH, 6th Month): 107.95%
Assay (%) ([1]; in cream Batch No. SFM-01, 30° C. 65% RH, 1st Month): 108.23%
Assay (%) ([1]; in cream Batch No. SFM-01, 30° C. 65% RH, 2nd Month): 108.21%
Assay (%) ([1]; in cream Batch No. SFM-01, 30° C. 65% RH, 3rd Month): 108.16%
Assay (%) ([1]; in cream Batch No. SFM-01, 30° C. 65% RH, 6th Month): 107.92%
Assay (%) ([1]; in cream Batch No. SFM-01, 40° C. 75% RH, 1st Month): 108.26%
Assay (%) ([1]; in cream Batch No. SFM-01, 40° C. 75% RH, 2nd Month): 108.14%
Assay (%) ([1]; in cream Batch No. SFM-01, 40° C. 75% RH, 3rd Month): 108.08%
Assay (%) ([1]; in cream Batch No. SFM-01, 40° C. 75% RH, 6th Month): 107.89%
Assay (%) ([1]; in cream Batch No. SFM-01, Freezthaw, 1st Month): 108.11%
Assay (%) ([1]; in cream Batch No. SFM-01, Initial): 108.27%
Assay (%) ([1]; in cream Batch No. SFM-01, Temperature cycling, 1st Month): 107.63%
Assay (%) ([1]; in cream Batch No. SPC-01, 25° C. 60% RH, 1st Month): 108.30%
Assay (%) ([1]; in cream Batch No. SPC-01, 25° C. 60% RH, 2nd Month): 108.24%
Assay (%) ([1]; in cream Batch No. SPC-01, 25° C. 60% RH, 3rd Month): 108.15%
Assay (%) ([1]; in cream Batch No. SPC-01, 25° C. 60% RH, 6th Month): 108.08%
Assay (%) ([1]; in cream Batch No. SPC-01, 30° C. 65% RH, 1st Month): 108.31%
Assay (%) ([1]; in cream Batch No. SPC-01, 30° C. 65% RH, 2nd Month): 108.32%
Assay (%) ([1]; in cream Batch No. SPC-01, 30° C. 65% RH, 3rd Month): 108.22%
Assay (%) ([1]; in cream Batch No. SPC-01, 30° C. 65% RH, 6th Month): 108.11%
Assay (%) ([1]; in cream Batch No. SPC-01, 40° C. 75% RH, 1st Month): 108.33%
Assay (%) ([1]; in cream Batch No. SPC-01, 40° C. 75% RH, 2nd Month): 108.24%
Assay (%) ([1]; in cream Batch No. SPC-01, 40° C. 75% RH, 3rd Month): 108.10%
Assay (%) ([1]; in cream Batch No. SPC-01, 40° C. 75% RH, 6th Month): 108.01%
Assay (%) ([1]; in cream Batch No. SPC-01, Freezthaw, 1st Month): 108.22%
Assay (%) ([1]; in cream Batch No. SPC-01, Initial): 108.38%
Assay (%) ([1]; in cream Batch No. SPC-01, Temperature cycling, 1st Month): 108.28%
Assay (%) Titration ([2]; 45° C. (C) closed Petri dish): 99.10%
Percentage Drop (%) Titration ([2]; 45° C. (C) closed Petri dish): 1.50%
Assay (%) Titration ([2]; 45° C. (O) open Petri dish): 98.52%
Percentage Drop (%) Titration ([2]; 45° C. (O) open Petri dish): 2.08%
Assay (%) Titration ([2]; RT (C) closed Petri dish): 99.02%
Percentage Drop (%) Titration ([2]; RT (C) closed Petri dish): 1.58%
Assay (%) Titration ([2]; RT (O) open Petri dish): 99.21%
Percentage Drop (%) Titration ([2]; RT (O) open Petri dish): 1.39%
Initial (%) ([3]; raw API tested at the time of receipt from the supplier, method not stated): 100.6%
Assay (%) HPLC ([3]; 45° C. (C) closed Petri dish): 92.12%
Percentage Drop (%) HPLC ([3]; 45° C. (C) closed Petri dish): 8.48%
Assay (%) HPLC ([3]; 45° C. (O) open Petri dish): 89.52%
Percentage Drop (%) HPLC ([3]; 45° C. (O) open Petri dish): 11.08%
loss in 3 Months ([3]; 45° C. (open condition)): about 11%
Assay (%) HPLC ([3]; RT (C) closed Petri dish): 94.37%
Percentage Drop (%) HPLC ([3]; RT (C) closed Petri dish): 6.23%
Assay (%) HPLC ([3]; RT (O) open Petri dish): 92.93%
Percentage Drop (%) HPLC ([3]; RT (O) open Petri dish): 7.67%
loss in 3 Months ([3]; room temperature (open condition)): about 7.7%
stability as an API, Sodium Fusidate compared with Fusidic acid ([3]; raw APIs, Tables 1 and 2): deteriorates more rapidly than Sodium Fusidate
